Experimental data taken from US20080287398A1, “COLD MENTHOL RECEPTOR-1 ANTAGONISTS” (priority 2007, published 2008).
Where “and” joins values, the source holds several entries; their conditions need not be identical. Equal values may be shown once. Read-outs that look alike come from different tables or passages of the source.

Target: T1, canine TRPM8 (Canis lupus familiaris, UniProt Q1A7N1)
T1 construct: expressed in transfected cells
Experiment: In vitro canine TRPM8 functional assay (Ca2+-sensitive dye, FLIPR/FDSS, icilin activation)
Assay type: cell-based
Conditions: HEK293 cells expressing canine TRPM8, icilin activation; for % I (1 μM): 1 μM compound; for IC50: eight-point dose-response; for % I (0.5 μM): 0.5 μM compound; for % I (5 μM): 5 μM compound
Summary of the method: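 HEK293 cells stably expressing canine TRPM8, loaded with Calcium 3 dye, preincubated with compound for 5 min before icilin at a concentration giving ~80% maximal response. Ca2+ fluorescence by FLIPR or FDSS; basal-subtracted, normalized to % maximal response, quadruplicate wells, sigmoidal fit for EC50/IC50.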

[1] = HEK293, read-out: % I (1 μM), 1 μM compound
[2] = HEK293, 1 μM compound, read-out: % I (1 μM)

T1 sequence (Q1A7N1 1-1104): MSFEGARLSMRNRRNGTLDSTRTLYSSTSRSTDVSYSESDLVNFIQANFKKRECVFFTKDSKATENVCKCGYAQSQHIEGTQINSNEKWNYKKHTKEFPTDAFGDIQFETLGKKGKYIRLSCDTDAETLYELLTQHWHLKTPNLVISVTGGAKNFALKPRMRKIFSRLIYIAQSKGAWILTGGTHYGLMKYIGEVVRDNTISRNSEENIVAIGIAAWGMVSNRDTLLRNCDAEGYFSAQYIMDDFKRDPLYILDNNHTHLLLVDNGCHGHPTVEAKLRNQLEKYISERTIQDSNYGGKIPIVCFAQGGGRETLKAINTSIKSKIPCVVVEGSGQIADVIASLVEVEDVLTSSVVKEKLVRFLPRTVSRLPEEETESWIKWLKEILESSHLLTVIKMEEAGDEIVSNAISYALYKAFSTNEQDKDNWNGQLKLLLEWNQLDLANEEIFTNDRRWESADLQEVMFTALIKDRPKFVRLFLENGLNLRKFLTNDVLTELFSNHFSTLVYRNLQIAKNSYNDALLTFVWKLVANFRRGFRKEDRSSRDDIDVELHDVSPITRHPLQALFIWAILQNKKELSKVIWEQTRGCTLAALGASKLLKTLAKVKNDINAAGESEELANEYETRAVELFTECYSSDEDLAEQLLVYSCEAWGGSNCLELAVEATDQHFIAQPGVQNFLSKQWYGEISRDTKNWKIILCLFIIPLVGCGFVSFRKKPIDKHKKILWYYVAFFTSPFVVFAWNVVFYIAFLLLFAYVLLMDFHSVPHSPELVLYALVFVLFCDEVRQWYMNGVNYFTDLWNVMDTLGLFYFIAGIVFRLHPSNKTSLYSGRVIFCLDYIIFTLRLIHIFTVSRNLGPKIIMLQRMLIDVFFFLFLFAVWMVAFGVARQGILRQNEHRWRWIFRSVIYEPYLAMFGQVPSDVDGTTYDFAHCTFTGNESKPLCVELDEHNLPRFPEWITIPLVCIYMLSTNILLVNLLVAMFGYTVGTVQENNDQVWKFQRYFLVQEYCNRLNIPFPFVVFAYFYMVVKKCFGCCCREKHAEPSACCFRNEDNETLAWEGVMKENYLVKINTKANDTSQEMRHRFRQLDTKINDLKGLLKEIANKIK

Row | Compound | % I (1 μM) | IC50 (read-out: IC50) | % I (0.5 μM) | further results
1 | CCOP(=O)(OCC)C(Cc1cccc(C(F)(F)F)c1Cl)c1sc2ccccc2c1C (stereo not shown) [Cpd 81] | 100% and 87% | 0.44 µM and 0.61 µM |  | 
2 | CCOP(=O)(Cc1cc2ccccc2s1)OCc1ccccc1 (stereo not shown) [Cpd 111] | 14% |  |  | 
3 | CCOP(=O)(OCC)C(Cc1ccccc1C(F)(F)F)c1cc2ccccc2s1 (stereo not shown) [Cpd 102] | 86% | 0.75 µM |  | 
4 | CCOP(=O)(OCC)C(Cc1cc(F)cc(Cl)c1)c1sc2ccccc2c1Br (stereo not shown) [Cpd 259] |  | 0.023 µM | 103% | 
5 | CCOP(=O)(OCC)C(Cc1cccc(OC(F)(F)F)c1)c1sc2ccccc2c1Cl (stereo not shown) [Cpd 270] |  | 0.202 µM | 102% | 
6 | CCOP(=O)(OCC)C(Cc1ccc(F)c(F)c1)c1oc2ccccc2c1Br (stereo not shown) [Cpd 266] | 103% | 0.051 µM |  | 
7 | CCOP(=O)(OCC)C(Cc1ccc(F)c(F)c1)c1sc2c(F)cccc2c1C (stereo not shown) [Cpd 8, [2-(3,4-Difluoro-phenyl)-1-(7-fluoro-3-methyl-benzo[b-]thiophene-2-yl)-ethyl]-phosphonic acid diethyl ester] |  |  |  | inhibition at 1 µM [1]: 100%; IC50 (IC50 (μM)): 0.037 µM
8 | CC(C)OP(=O)(OC(C)C)C(Cc1cccc(F)c1)c1cc2ccccc2s1 (stereo not shown) [Cpd 133] | 101% | 0.34 µM |  | 
9 | CC(C)OP(=O)(OC(C)C)C(Cc1ccccc1F)c1sc2cccc(Br)c2c1Br (stereo not shown) [Cpd 198] | 98% | 0.357 µM |  | 
10 | CCOP(=O)(CC(C)C)C(Cc1ccc(F)c(F)c1)c1sc2ccccc2c1C (stereo not shown) [Cpd 36, [2-(3,4-Difluoro-phenyl)-1-(3-methyl-benzo[b]thiophene-2-yl)-ethyl]-isobutyl-phosphonic acid ethyl ester] | 100% | 0.126 µM |  | 
11 | CCOP(=O)(OCC)C(Cc1ccc(O)c(F)c1)c1sc2ccccc2c1Br (racemic) [Cpd 226] |  |  | 34% | 
12 | CCOP(=O)(Cc1cc2ccccc2s1)OCc1ccccc1Br (stereo not shown) [Cpd 110] | 11% | 2.32 µM |  | % I (5 μM): 96%
13 | CC(C)OP(=O)(OC(C)C)C(Cc1cccc(Cl)c1)c1sc2ccccc2c1Cl (stereo not shown) [Cpd 180] |  | 0.075 µM | 103% | 
14 | CCOP(=O)(OCC)C(Cc1c(Cl)cccc1Cl)c1cc2ccccc2s1 (stereo not shown) [Cpd 95] | 89% | 0.6 µM |  | % I (5 μM): 100%
15 | CCOP(=O)(OCC)C(Cc1cccc(C#N)c1)c1sc2ccccc2c1Br (stereo not shown) [Cpd 309] |  | 0.088 µM | 103% | 
16 | CCOP(=O)(OCC)C(Cc1ccc(SC(F)(F)F)cc1)c1sc2ccccc2c1Br (racemic) [Cpd 153] |  | 0.043 µM | 103% | 
17 | CCOP(=O)(OCC)C(Cc1ccc(OC)cc1)c1sc2ccccc2c1Br (stereo not shown) [Cpd 321] |  | 0.043 µM | 102% | 
18 | [2-(3,4-Difluoro-phenyl)-1-(3-methyl-benzo[b]thiophene-2-yl)-ethyl]-[3-(4-methoxy-phenyl)-propyl]-phosphonic acid ethyl ester [Cpd 136] | 91% | 0.42 µM |  | 
19 | CCOP(=O)(OCC)C(Cc1ccccc1Cl)c1sc2ccccc2c1C (stereo not shown) [Cpd 48] | 100% | 0.169 µM |  | 
20 | CC(C)OP(=O)(OC(C)C)C(Cc1cccc(Cl)c1F)c1sc2ccccc2c1Br (stereo not shown) [Cpd 267] | 101% and 102% | 0.047 µM and 0.029 µM |  | 
21 | Cc1c(C(Cc2ccc(F)c(F)c2)P(=O)(OC(C)C)OC(C)C)oc2ccccc12 (stereo not shown) [Cpd 11] | 99% and 103% | 0.043 µM and 0.047 µM |  | 
22 | Cc1ccc2sc(C(Cc3ccc(F)c(F)c3)P(=O)(OC(C)C)OC(C)C)c(C)c2c1 (stereo not shown) [Cpd 62, 2-(3,4-Difluoro-phenyl)-[1-(3,5-dimethyl-benzo[b]thiophen-2-yl)-ethyl]-phosphonic acid diisopropyl ester] |  | 0.29 µM |  | inhibition at 1 µM [2]: 95%
23 | CCOP(=O)(OCC)C(Cc1ccc(Cl)c(C(F)(F)F)c1)c1sc2ccccc2c1Cl (racemic) [Cpd 287] |  | 0.124 µM | 103% | 
24 | CCOP(=O)(OCC)C(Cc1ccc(S(=O)(=O)C(F)(F)F)cc1)c1sc2ccccc2c1Cl (racemic) [Cpd 300] |  | 0.089 µM | 103% | 
25 | CCCS(=O)(=O)n1c(C(Cc2ccc(F)c(C(F)(F)F)c2)P(=O)(OC(C)C)OC(C)C)c(Br)c2ccccc21 (stereo not shown) [Cpd 332] |  |  | 72% | 
26 | CC(C)OP(=O)(OC(C)C)C(Cc1cc(Cl)ccc1F)c1sc2ccccc2c1Br (racemic) [Cpd 308] |  | 0.017 µM | 103% | 
27 | CCOP(=O)(OCC)C(Cc1cccc(OC(F)(F)F)c1)c1sc2ccccc2c1Br (racemic) [Cpd 145] |  | 0.119 µM and 0.116 µM | 103% and 102% | 

Row | Compound | % I (1 μM) | IC50 (read-out: IC50) | % I (0.5 μM) | further results
28 | CSc1ccc(CC(c2sc3ccccc3c2Br)P(=O)(OC(C)C)OC(C)C)cc1 (stereo not shown) [Cpd 251] |  | 0.045 µM | 103% | 
29 | CCOP(=O)(OCC)C(Cc1ccc(F)c(F)c1)c1oc2ccccc2c1C (stereo not shown) [Cpd 9, [2-(3,4-Difluoro-phenyl)-1-(3-methyl-benzofuran-2-yl)-ethyl]-phosphonic acid diethyl ester] |  |  |  | inhibition at 1 µM [1]: 100%; IC50 (IC50 (μM)): 0.041 µM
30 | CCOP(=O)(OCC)C(Cc1ccccc1OC)c1sc2ccccc2c1Br (stereo not shown) [Cpd 320] |  | 0.028 µM | 103% | 
31 | CCOP(=O)(OCC)C(Cc1ccc(F)c(F)c1)c1c(C)c2ccccc2[s+]1[O-] (stereo not shown) [Cpd 118] | 23% |  |  | 
32 | (R)-[1-(3-Bromo-benzo[b]thiophen-2-yl)-2-(4-trifluoromethoxy-phenyl)-ethyl]-phosphonic acid diisopropyl ester [Cpd 237] |  |  | 96% and 70% | 
33 | CC(C)OP(=O)(OC(C)C)C(Cc1cc(C(F)(F)F)cc(Cl)c1F)c1sc2ccccc2c1Br (stereo not shown) [Cpd 195] | 103% | 0.061 µM |  | 
34 | CC(C)OP(=O)(OC(C)C)C(Cc1ccc(C(F)(F)F)cc1F)c1sc2ccccc2c1Cl (stereo not shown) [Cpd 191] |  | 0.125 µM | 104% | 
35 | CSc1ccc(CC(c2sc3ccccc3c2Cl)P(=O)(OC(C)C)OC(C)C)cc1 (stereo not shown) [Cpd 256] |  | 0.056 µM | 103% | 
36 | CCOP(=O)(OCC)C(Cc1c(Cl)cccc1Cl)c1sc2ccccc2c1C (stereo not shown) [Cpd 54] | 100% | 0.23 µM |  | 
37 | CC(C)OP(=O)(OC(C)C)C(Cc1ccc(F)c(C(F)(F)F)c1)c1c(Br)c2ccccc2n1C(=O)OC(C)(C)C (stereo not shown) [Cpd 327, 3-Bromo-2-[1-(diisopropoxy-phosporyl)-2-(4-fluoro-3-trifluoromethyl-phenyl)-ethyl]-indole-1-carboxylic acid tert-butyl ester] |  |  | 44% | 
38 | CCOP(=O)(OCC)C(Cc1ccc(S(=O)(=O)C(F)(F)F)cc1)c1sc2ccccc2c1Br (stereo not shown) [Cpd 262] |  | 0.066 µM | 103% | 
39 | CC(C)OP(=O)(OC(C)C)C(Cc1cccc(O)c1)c1sc2ccccc2c1Br (stereo not shown) [Cpd 325] |  | 0.01 µM | 97% | 
40 | CC(C)OP(=O)(OC(C)C)C(Cc1ccc(F)c(F)c1)c1cc2ccccc2s1 (stereo not shown) [Cpd 63, [1-Benzo[b]thiophen-2-yl-2-(3,4-difluoro-phenyl)-ethyl]-phosphonic acid diisopropyl ester] |  | 0.3 µM |  | inhibition at 1 µM [2]: 100%
41 | CCOP(=O)(OCC)C(Cc1ccccc1F)c1sc2ccccc2c1CN(C)C (stereo not shown) [Cpd 114, [1-(3-Dimethylaminomethyl-benzo[b]thiophen-2-yl)-2-(2-fluoro-phenyl)-ethyl]-phosphonic acid diethyl ester] |  |  |  | inhibition at 1 µM [1]: 15%
42 | CCOP(=O)(OCC)C(Cc1ccc(F)c(F)c1)c1sc2ncccc2c1Br (stereo not shown) [Cpd 132, 1-[(3-Bromo-thieno[2,3-b]pyridin-2-yl)-2-(3,4-difluoro-phenyl)-ethyl]-phosphonic acid diethyl ester] |  |  |  | inhibition at 1 µM [1]: 102%; IC50 (IC50 (μM)): 0.11 µM
43 | CCOP(=O)(OCC)C(Cc1ccc(Cl)cc1)c1sc2ccccc2c1Br (stereo not shown) [Cpd 257] |  | 0.026 µM | 101% | 
44 | CCOP(=O)(OCC)C(Cc1c(F)c(F)c(OC)c(F)c1F)c1sc2ccccc2c1Br (racemic) [Cpd 160] |  | 0.06 µM | 87% | 
45 | CCOP(=O)(OCC)C(Cc1ccc(Cl)c(Cl)c1)c1cc2ccccc2s1 (stereo not shown) [Cpd 78, [1-Benzo[b]thiophen-2-yl-2-(3,4-dichloro-phenyl)-ethyl]-phosphonic acid diethyl ester] |  |  |  | inhibition at 1 µM [1]: 95%; IC50 (IC50 (μM)): 0.43 µM
46 | CC(C)OP(=O)(OC(C)C)C(Cc1ccc(F)c(F)c1)c1sc2ncccc2c1Br (racemic) [Cpd 207] |  | 0.051 µM | 99% | 
47 | CCOP(=O)(OCC)C(Cc1cccc(Br)c1)c1sc2ccccc2c1Br (racemic) [Cpd 295] |  | 0.031 µM and 0.016 µM | 102% and 103% | 
48 | CCOP(=O)(OCC)C(Cc1cccc(C(F)(F)F)c1F)c1sc2ccccc2c1C (stereo not shown) [Cpd 37] | 100% | 0.127 µM |  | 
49 | CCOP(=O)(OCC)C(Cc1cc(C(F)(F)F)ccc1F)c1sc2ccccc2c1Br (racemic) [Cpd 146] |  | 0.1 µM | 103% | 
50 | CCOP(=O)(OCC)C(Cc1cc(Cl)ccc1F)c1sc2ccccc2c1Cl (racemic) [Cpd 305] |  | 0.07 µM | 102% | 
51 | COc1cc(CC(c2sc3ccccc3c2Br)P(=O)(OC(C)C)OC(C)C)ccc1F (racemic) [Cpd 157] |  |  | 103% and 98% | 
52 | CC(C)OP(=O)(OC(C)C)/C(=C/c1ccc(F)c(F)c1)c1cc2ccccc2s1 [Cpd 333, (E)-[1-Benzo[b]thiophen-2-yl-2-(3,4-difluoro-phenyl)-vinyl]-phosphonic acid diisopropyl ester] |  | 0.176 µM |  | inhibition at 0.5 µM (HEK293, 0.5 μM compound, read-out: % I (0.5 μM)): 95%
53 | CCOP(=O)(OCC)C(Cc1cccc(C(F)(F)F)c1)c1cc2ccccc2s1 (stereo not shown) [Cpd 39] | 100% | 0.141 µM |  | 
